# Reference: patent US9067943B2, “[1,2,3]triazolo[4,5-D]pyrimidine derivatives” (priority 2011, dated 2015)
# pEC50: −log10 of the molar value.
# Assays:
# human CB1 receptors = molecular target: T1, human CB1 receptors (Homo sapiens, UniProt P21554); assay: cAMP assay; type: cell-based
# T1 construct: expressed in transfected cells; host or cells: CHO cells
# Experimental: (§1) CHO cells expressing human CB1 or CB2 receptors are seeded 17-24 hours prior to the experiment 50.000 cells per well in a black 96 well plate with flat clear bottom (Corning Costar #3904) in DMEM (Invitrogen No. 31331), 1×HT supplement, with 10% fetal calf serum and incubated at 5% CO2 and 37° C. in a humidified incubator. The growth medium was exchanged with Krebs Ringer Bicarbonate buffer with 1 mM IBMX and incubated at 30° C. for 30 min. Compounds were added to a final assay volume of 100 μl and incubated for 30 min at 30° C. Using the cAMP-Nano-TRF detection kit the assay (Roche Diagnostics) was stopped by the addition of 50 μl lysis reagent (Tris, NaCl, 1.5% Triton X100, 2.5% NP40, 10% NaN3) and 50 μl detection solutions (20 μM mAb Alexa700-cAMP 1:1, and 48 μM Ruthenium-2-AHA-cAMP) and shaken for 2 h at room temperature. The time-resolved energy transfer is measured by a TRF reader (Evotec Technologies GmbH), equipped with a ND:YAG laser as excitation source. The plate is measured twice with the excitation at 355 nm and at the emission with a delay of 100 ns and a gate of 100 ns, total exposure time 10 s at 730 (bandwidth 30 nm) or 645 nm (bandwidth 75 nm), respectively. The FRET signal is calculated as follows: FRET=T730-Alexa730-P(T645-B645) with P=Ru730-B730/Ru645-B645, where T730 is the test well measured at 730 nM, T645 is the test well measured at 645 nm, B730 and B645 are the buffer controls at 730 nm and 645 nm, respectively. cAMP content is determined from the function of a standard curve spanning from 10 μM to 0.1 nM cAMP.
# (§2) EC50 values were determined using Activity Base analysis (ID Business Solution, Limited). The EC50 values for a wide range of cannabinoid agonists generated from this assay were in agreement with the values published in the scientific literature.
# human CB2 receptors = molecular target: T2, human CB2 receptors (Homo sapiens, UniProt P34972); assay: cAMP assay; type: cell-based
# T2 construct: expressed in transfected cells; host or cells: CHO cells
# Experimental: as §1, §2
# T2 sequence (P34972 whole entry): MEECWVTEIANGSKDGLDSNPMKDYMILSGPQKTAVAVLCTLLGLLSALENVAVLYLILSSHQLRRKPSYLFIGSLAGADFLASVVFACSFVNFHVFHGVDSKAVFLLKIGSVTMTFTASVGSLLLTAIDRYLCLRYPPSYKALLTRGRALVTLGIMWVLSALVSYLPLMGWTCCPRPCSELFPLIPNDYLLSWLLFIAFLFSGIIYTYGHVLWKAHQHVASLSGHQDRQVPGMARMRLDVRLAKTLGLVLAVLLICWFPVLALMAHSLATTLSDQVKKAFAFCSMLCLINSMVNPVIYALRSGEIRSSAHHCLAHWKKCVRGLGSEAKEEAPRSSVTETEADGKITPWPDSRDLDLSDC
# T1 sequence (P21554 whole entry): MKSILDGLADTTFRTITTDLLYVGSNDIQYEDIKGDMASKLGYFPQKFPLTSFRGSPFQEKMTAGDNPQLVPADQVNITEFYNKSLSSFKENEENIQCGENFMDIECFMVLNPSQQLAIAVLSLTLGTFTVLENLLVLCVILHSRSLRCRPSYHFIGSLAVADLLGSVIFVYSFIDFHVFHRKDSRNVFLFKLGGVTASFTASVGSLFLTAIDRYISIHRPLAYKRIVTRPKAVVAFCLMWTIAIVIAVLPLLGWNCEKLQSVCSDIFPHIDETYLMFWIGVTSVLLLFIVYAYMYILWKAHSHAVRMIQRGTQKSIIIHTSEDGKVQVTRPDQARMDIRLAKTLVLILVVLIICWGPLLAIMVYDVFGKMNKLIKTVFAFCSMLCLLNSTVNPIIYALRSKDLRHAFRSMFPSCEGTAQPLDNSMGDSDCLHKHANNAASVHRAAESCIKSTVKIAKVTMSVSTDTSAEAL
Compound,pEC50 (human CB1 receptors),pEC50 (human CB2 receptors)
"CC(C)(C)c1nc(N2CCC(F)(F)C2)c2nn(CCc3ccccc3)nc2n1 [Example 26, 5-tert-Butyl-7-(3,3-difluoro-pyrrolidin-1-yl)-2-phenethyl-2H-[1,2,3]triazolo[4,5-d]pyrimidine]",6.41,8.89
"CC(C)(C)c1nc(N2CCC(F)(F)C2)c2nn(CC(=O)c3ccccc3)nc2n1 [Example 27, 2-[5-tert-Butyl-7-(3,3-difluoro-pyrrolidin-1-yl)-[1,2,3]triazolo[4,5-d]pyrimidin-2-yl]-1-phenyl-ethanone]",< 5.00,9.05
"C[C@H](c1ccccc1Cl)n1nc2nc(C(C)(C)C)nc(N3CCC(F)(F)C3)c2n1 [Example 28, 5-tert-Butyl-2-[(R)-1-(2-chloro-phenyl)-ethyl]-7-(3,3-difluoro-pyrrolidin-1-yl)-2H-[1,2,3]triazolo[4,5-d]pyrimidine]",6.87,9.70
"C[C@@H](c1ccccc1Cl)n1nc2nc(C(C)(C)C)nc(N3CCC(F)(F)C3)c2n1 [Example 29, 5-tert-Butyl-2-[(S)-1-(2-chloro-phenyl)-ethyl]-7-(3,3-difluoro-pyrrolidin-1-yl)-2H-[1,2,3]triazolo[4,5-d]pyrimidine]",7.01,9.10
"CC(C)(C)c1nc(N2CCC(F)(F)C2)c2nn(Cc3c(Cl)ccc(F)c3Cl)nc2n1 [Example 33, 5-tert-Butyl-2-(2,6-dichloro-3-fluoro-benzyl)-7-(3,3-difluoro-pyrrolidin-1-yl)-2H-[1,2,3]triazolo[4,5-d]pyrimidine]",< 5.00,8.92
"CC(C)(C)c1nc(N2CCC(F)(F)C2)c2nn(Cc3cccnc3Cl)nc2n1 [Example 34, 5-tert-Butyl-2-(2-chloro-pyridin-3-ylmethyl)-7-(3,3-difluoro-pyrrolidin-1-yl)-2H-[1,2,3]triazolo[4,5-d]pyrimidine]",< 5.00,9.30
"CC(C)(C)c1nc(N2CCC(F)(F)C2)c2nn(Cc3cnccc3Cl)nc2n1 [Example 35, 5-tert-Butyl-2-(4-chloro-pyridin-3-ylmethyl)-7-(3,3-difluoro-pyrrolidin-1-yl)-2H-[1,2,3]triazolo[4,5-d]pyrimidine]",6.19,9.30
"CC(C)(C)c1nc(N2CCC(F)(F)C2)c2nn(Cc3ncccc3Cl)nc2n1 [Example 36, 5-tert-Butyl-2-(3-chloro-pyridin-2-ylmethyl)-7-(3,3-difluoro-pyrrolidin-1-yl)-2H-[1,2,3]triazolo[4,5-d]pyrimidine]",7.69,9.70
"CC(C)(C)c1nc(N2CCC(F)(F)C2)c2nn(Cc3cc(Cl)cnc3Cl)nc2n1 [Example 37, 5-tert-Butyl-2-(2,5-dichloro-pyridin-3-ylmethyl)-7-(3,3-difluoro-pyrrolidin-1-yl)-2H-[1,2,3]triazolo[4,5-d]pyrimidine]",< 5.00,9.05
"CC(C)(C)c1nc(N2CCC(F)(F)C2)c2nn(Cc3nc(Cl)ccc3Cl)nc2n1 [Example 38, 5-tert-Butyl-2-(3,6-dichloro-pyridin-2-ylmethyl)-7-(3,3-difluoro-pyrrolidin-1-yl)-2H-[1,2,3]triazolo[4,5-d]pyrimidine]",7.01,8.96
"Cc1nonc1Cn1nc2nc(C(C)(C)C)nc(N3CCC(F)(F)C3)c2n1 [Example 39, 5-tert-Butyl-7-(3,3-difluoro-pyrrolidin-1-yl)-2-(4-methyl-furazan-3-ylmethyl)-2H-[1,2,3]triazolo[4,5-d]pyrimidine]",< 5.00,9.70
"Cc1noc(Cn2nc3nc(C(C)(C)C)nc(N4CCC(F)(F)C4)c3n2)n1 [Example 40, 5-tert-Butyl-7-(3,3-difluoro-pyrrolidin-1-yl)-2-(3-methyl-[1,2,4]oxadiazol-5-ylmethyl)-2H-[1,2,3]triazolo[4,5-d]pyrimidine]",< 5.00,8.37
"CC(C)(C)c1nc(N2CCC(F)(F)C2)c2nn(CCc3ccccc3Cl)nc2n1 [Example 41, 5-tert-Butyl-2-[2-(2-chloro-phenyl)-ethyl]-7-(3,3-difluoro-pyrrolidin-1-yl)-2H-[1,2,3]triazolo[4,5-d]pyrimidine]",6.30,9.30
"CC(C)(C)c1nc(N2CCC(F)(F)C2)c2nn(CCc3cccc(Cl)c3)nc2n1 [Example 42, 5-tert-Butyl-2-[2-(3-chloro-phenyl)-ethyl]-7-(3,3-difluoro-pyrrolidin-1-yl)-2H-[1,2,3]triazolo[4,5-d]pyrimidine]",< 5.00,7.97
"CC(C)(C)c1nc(N2CCC(F)(F)C2)c2nn(CCc3ccc(Cl)cc3)nc2n1 [Example 43, 5-tert-Butyl-2-[2-(4-chloro-phenyl)-ethyl]-7-(3,3-difluoro-pyrrolidin-1-yl)-2H-[1,2,3]triazolo[4,5-d]pyrimidine]",< 5.00,7.66
"CC(C)(C)c1nc(N2CCC(F)(F)C2)c2nn(Cc3c(Cl)ccnc3Cl)nc2n1 [Example 44, 5-tert-Butyl-2-(2,4-dichloro-pyridin-3-ylmethyl)-7-(3,3-difluoro-pyrrolidin-1-yl)-2H-[1,2,3]triazolo[4,5-d]pyrimidine]",6.34,9.70
"CC(C)(C)c1nc(N2CCC(F)(F)C2)c2nn([C@@H]3CCOC3)nc2n1 [Example 45, 5-tert-Butyl-7-(3,3-difluoro-pyrrolidin-1-yl)-2-(R)-tetrahydro-furan-3-yl-2H-[1,2,3]triazolo[4,5-d]pyrimidine]",< 5.00,8.12
"CC(C)(C)c1nc(N2CCC(F)(F)C2)c2nn([C@H]3CCOC3)nc2n1 [Example 46, 5-tert-Butyl-7-(3,3-difluoro-pyrrolidin-1-yl)-2-(S)-tetrahydro-furan-3-yl-2H-[1,2,3]triazolo[4,5-d]pyrimidine]",< 5.00,8.55
"CC(C)(C)c1nc(N2CCC(F)(F)C2)c2nn(CC(=O)c3ccccc3Cl)nc2n1 [Example 47, 2-[5-tert-Butyl-7-(3,3-difluoro-pyrrolidin-1-yl)-[1,2,3]triazolo[4,5-d]pyrimidin-2-yl]-1-(2-chloro-phenyl)-ethanone]",< 5.00,9.22
"CC(C)(C)c1nc(N2CCC(F)(F)C2)c2nn(Cc3c(F)ccc(Cl)c3Cl)nc2n1 [Example 48, 5-tert-Butyl-2-(2,3-dichloro-6-fluoro-benzyl)-7-(3,3-difluoro-pyrrolidin-1-yl)-2H-[1,2,3]triazolo[4,5-d]pyrimidine]",< 5.00,8.26
"CC(C)(C)c1nc(N2CCC(F)(F)C2)c2nn(Cc3ccccc3S(C)(=O)=O)nc2n1 [Example 49, 5-tert-Butyl-7-(3,3-difluoro-pyrrolidin-1-yl)-2-(2-methanesulfonyl-benzyl)-2H-[1,2,3]triazolo[4,5-d]pyrimidine]",6.82,9.40
"CC(C)(C)c1nc(N2CCC(F)(F)C2)c2nn(CCc3ccccn3)nc2n1 [Example 50, 5-tert-Butyl-7-(3,3-difluoro-pyrrolidin-1-yl)-2-(2-pyridin-2-yl-ethyl)-2H-[1,2,3]triazolo[4,5-d]pyrimidine]",< 5.00,8.82
"CC1(Cn2nc3nc(C(C)(C)C)nc(N4CCC(F)(F)C4)c3n2)COC1 [Example 51, 5-tert-Butyl-7-(3,3-difluoro-pyrrolidin-1-yl)-2-(3-methyl-oxetan-3-ylmethyl)-2H-[1,2,3]triazolo[4,5-d]pyrimidine]",< 5.00,9.05
"CC(C)(C)c1nc(N2CCC(F)(F)C2)c2nn(CC(=O)c3cccc(Cl)c3)nc2n1 [Example 52, 2-[5-tert-Butyl-7-(3,3-difluoro-pyrrolidin-1-yl)-[1,2,3]triazolo[4,5-d]pyrimidin-2-yl]-1-(3-chloro-phenyl)-ethanone]",< 5.00,7.89
"CC(C)(C)c1nc(N2CCC(F)(F)C2)c2nn(CC(=O)c3ccc(Cl)cc3)nc2n1 [Example 53, 2-[5-tert-Butyl-7-(3,3-difluoro-pyrrolidin-1-yl)-[1,2,3]triazolo[4,5-d]pyrimidin-2-yl]-1-(4-chloro-phenyl)-ethanone]",< 5.00,8.14
"CC(C)(C)c1nc(N2CCC(F)(F)C2)c2nn(CC(=O)c3cccnc3)nc2n1 [Example 54, 2-[5-tert-Butyl-7-(3,3-difluoro-pyrrolidin-1-yl)-[1,2,3]triazolo[4,5-d]pyrimidin-2-yl]-1-pyridin-3-yl-ethanone]",< 5.00,8.19
"CC(C)(C)c1nc(N2CCC(F)(F)C2)c2nn(Cc3c(Cl)ccc(Cl)c3Cl)nc2n1 [Example 55, 5-tert-Butyl-7-(3,3-difluoro-pyrrolidin-1-yl)-2-(2,3,6-trichloro-benzyl)-2H-[1,2,3]triazolo[4,5-d]pyrimidine]",< 5.00,8.06
